We go through eleven molecules from paper PMC7441487 (mBio, 2020).

The structures appear in SMILES notation. “Also recorded” adds a separate entry of the source. Read-outs that look alike come from different tables or passages of the source. Some results are limits rather than exact numbers.

Series [1] concerns SARS-CoV-2^WK-521. Put plainly: Immunocytochemistry, high-stringency assay (VeroE6^TMPRSS2 cells and SARS-CoV-2^WK-521). The format is cell-based. As to conditions: VeroE6^TMPRSS2 cells; for Block of infectivity and cytopathic effect of SARS-CoV-2^WK-521 (immunocytochemistry): overall statement, Fig. 3B; for Observation by immunocytochemistry: 100 μM; for Antiviral effect seen by immunocytochemistry: 1 and 10 μM.

Series [2] has as its system SARS-CoV-2^WK-521. Put plainly: Immunocytochemistry, low-stringency assay (VeroE6 cells and SARS-CoV-2^WK-521). The format is cell-based. As to conditions: VeroE6 cells; for Block of SARS-CoV-2^WK-521 infection (immunocytochemistry): overall statement over the concentrations tested.
Series [3] concerns SARS-CoV-2^WK-521. The series is described as follows: Antiviral assay: viral RNA in culture supernatants by RNA-qPCR (RT-qPCR), VeroE6 cells. The format is cell-based. As to conditions: for Selectivity index: ratio of CC50 to EC50, VeroE6 cells.
A further series deals with VeroE6 cells. The series is described as follows: Cytotoxicity, WST-8 assay (Cell Counting Kit-8). The format is cell-based. Particulars: concentrations up to 100 μM.
Series [4] is described as follows: Cytotoxicity, WST-8 assay (Cell Counting Kit-8). The format is cell-based. As to conditions: African green monkey, VeroE6 cells. In general terms: Tetrazolium assays rely on reduction of a dye to a coloured formazan, in cell work by metabolically active cells.
In series [5] the test system is SARS-CoV-2^WK-521. As to conditions: VeroE6 cells; 100 μM; 3 days.
A further series concerns the target HIV-1 protease (Human immunodeficiency virus type 1 group M subtype B, UniProt P04585). The series is described as follows: Thermal stability of HIV-1 protease by differential scanning fluorimetry (control). The format is binding. As to conditions: HIV-1 protease 5 μM + 5 μM compound (1:1); protease alone 54.78°C. Background: In DSF a fluorescence change marks the thermal transition of the protein.

A further series addresses SARS-CoV-2 M^pro (Severe acute respiratory syndrome coronavirus 2, UniProt P0DTD1). The series is described as follows: M^pro molecular weight analysis with HPLC/MS (covalent binding). Particulars: 100 μM compound, 37°C, 30 min.
A further series deals with SARS-CoV-2. Particulars: Calu-3 cells exposed to SARS-CoV-2; cited from earlier work.
[6] abbreviates: Severe acute respiratory syndrome coronavirus 2, Vero C1008, read-out: EC50 ±SD.

Consider `NC(=O)c1nc(F)c[nH]c1=O` [Favipiravir, favipiravir], for which the “Block of infectivity and cytopathic effect of SARS-CoV-2^WK-521 (immunocytochemistry)” value with SARS-CoV-2^WK-521 [1] was “failed to block the infection”. In addition, the “Block of SARS-CoV-2^WK-521 infection (immunocytochemistry)” value (shortened to “Block of SARS-CoV-2^WK-521 infection”) with SARS-CoV-2^WK-521 [2] was “failed to block SARS-CoV-2 infection”. Also, the EC50 – broadly, the midpoint of the concentration-response curve – with SARS-CoV-2^WK-521 [3] (setting [6]) was over 100 µM. Besides, in the series on VeroE6 cells, the “Cytotoxicity (in words)” value is “nontoxic at all concentrations tested”. The cytotoxic concentration (CC50) (usually the concentration giving 50% cytotoxicity) at 3 days in series [4] is over 100 µM.

`O=C(Oc1cncc(Cl)c1)c1cccc2[nH]ccc12` [GRL-0920]: the Observation by immunocytochemistry result in the series with SARS-CoV-2^WK-521 [1] is listed as “essentially no infected cells seen”; in the series on SARS-CoV-2^WK-521 [2] (10 μM), “further suppression of viral replication”; in the series with SARS-CoV-2^WK-521 [2] (100 μM), “completely blocked; also recorded: complete”. Besides, in the series with SARS-CoV-2^WK-521 [1], the “Block of infectivity and cytopathic effect of SARS-CoV-2^WK-521 (immunocytochemistry)” value is recorded as “potently blocked; also recorded: completely blocked”. The “Block of SARS-CoV-2^WK-521 infection” value in the series on SARS-CoV-2^WK-521 [2] is given as “completely blocked the infectivity”. The EC50 with SARS-CoV-2^WK-521 [3] (setting [6]) turned out to be 8.6 ± 2.8 µM. The “Protection of virus-exposed cells (light microscopy)” value in the series with SARS-CoV-2^WK-521 [5] was “appeared to be protected”. The cytotoxic concentration (CC50) at 3 days in series [4] is over 100 µM.

As to `CC(C)CN(C[C@@H](O)[C@H](Cc1cc(F)cc(F)c1)NC(=O)O[C@H]1C2COC3OCC1C3C2)S(=O)(=O)c1ccc2nc(NC3CC3)sc2c1` (stereo partly drawn) [GRL-142], the “Tm of HIV-1 protease” value at HIV-1 protease worked out at 87.13 °C.

Regarding `Cc1c(O)cccc1C(=O)N[C@@H](CSc1ccccc1)[C@H](O)CN1C[C@H]2CCCC[C@H]2C[C@H]1C(=O)NC(C)(C)C` [Nelfinavir, nelfinavir], in the series on SARS-CoV-2^WK-521 [1], the Observation by immunocytochemistry entry is listed as “most of the cells were lost”; the “Antiviral effect seen by immunocytochemistry” value is reported as “no detectable antiviral activity”; the “Block of infectivity and cytopathic effect of SARS-CoV-2^WK-521 (immunocytochemistry)” value is “failed to block the infection”. In addition, in the series with SARS-CoV-2^WK-521 [2], the “Block of SARS-CoV-2^WK-521 infection” value is on record as “failed to block SARS-CoV-2 infection”. The concentration for a half-maximal effect (EC50) in the series with SARS-CoV-2^WK-521 [3] (setting [6]) came to 3.1 µM. Moreover, the Selectivity index in the series with SARS-CoV-2^WK-521 [3] was 17. This molecule had a CC50 at 3 days in series [4] of 53 ± 8 µM.

Take `CCC(CC)COC(=O)[C@H](C)N[P@](=O)(OC[C@H]1O[C@@](C#N)(c2ccc3c(N)ncnn23)[C@H](O)[C@@H]1O)Oc1ccccc1` [Remdesivir, remdesivir]: the Observation by immunocytochemistry result was “essentially no infected cells seen” in the series on SARS-CoV-2^WK-521 [1], “further suppression of viral replication” in the series with SARS-CoV-2^WK-521 [2] (10 μM) and “nearly complete” with SARS-CoV-2^WK-521 [2] (100 μM). For the same molecule, in the series on SARS-CoV-2^WK-521 [1], the “Block of infectivity and cytopathic effect of SARS-CoV-2^WK-521 (immunocytochemistry)” value is on record as “potently blocked; also recorded: permitted viral breakthrough”. Further, the “Block of SARS-CoV-2^WK-521 infection” value in the series on SARS-CoV-2^WK-521 [2] was “significantly blocked SARS-CoV-2 infection but allowed viral breakthrough”. Besides, the EC50 with SARS-CoV-2^WK-521 [3] (setting [6]) came to 1.2 ± 0.06 µM. The Selectivity index in the series on SARS-CoV-2^WK-521 [3] is given as over 83. Moreover, the “Protection of virus-exposed cells (light microscopy)” value in the series with SARS-CoV-2^WK-521 [5] is recorded as “appeared to be protected”. The same molecule had a CC50 at 3 days in series [4] of over 100 µM.

In the case of `C=CCn1ccc2c(C(=O)Oc3cncc(Cl)c3)cccc21` [GRL-0820], in the series on SARS-CoV-2^WK-521 [1], the Observation by immunocytochemistry result is “viral breakthrough had occurred”; the “Block of infectivity and cytopathic effect of SARS-CoV-2^WK-521 (immunocytochemistry)” value is given as “potently blocked; also recorded: permitted viral breakthrough”. Besides, the “Block of SARS-CoV-2^WK-521 infection” value in the series on SARS-CoV-2^WK-521 [2] was “permitted viral breakthrough”. The EC50 in the series with SARS-CoV-2^WK-521 [3] (Severe acute respiratory syndrome coronavirus 2, Vero C1008, read-out: Anti-SARS-CoV-2 EC50) is 15 ± 18 µM. The EC50 in the series on SARS-CoV-2^WK-521 [3] (setting [6]) came out at 23 ± 5 µM. In addition, in the series with SARS-CoV-2^WK-521 [3], the Selectivity index is listed as over 4.3. Further, on SARS-CoV-2 M^pro, the “Increase of the mass of M^pro” value came out at 183.85 amu. Moreover, the “Average mass of the major M^pro species with compound” value on SARS-CoV-2 M^pro (TOF MS) was 34,037.21. In [4], this molecule showed a CC50 at 3 days of over 100 µM.

On to `CCN(CCO)CCCC(C)Nc1ccnc2cc(Cl)ccc12` (stereo not drawn) [Hydroxychloroquine, hydroxychloroquine], for which the Observation by immunocytochemistry entry with SARS-CoV-2^WK-521 [2] (10 μM) was “slightly block infectivity”; in the series on SARS-CoV-2^WK-521 [2] (100 μM) it was “almost all the cells were shed from the wells; also recorded: virtually no cells were left”. Besides, in the series with SARS-CoV-2^WK-521 [2], the “Block of SARS-CoV-2^WK-521 infection” value is “did not exert significant antiviral activity; also recorded: failed to block the infectivity”. Moreover, the EC50 in the series on SARS-CoV-2^WK-521 [3] (setting [6]) is 5.1 ± 3.4 µM. In the series on SARS-CoV-2^WK-521 [3], the Selectivity index is on record as over 20. Besides, the “Cytotoxicity (in words)” value in the series on VeroE6 cells is on record as “nontoxic at up to 100 μM”. For the same molecule, the CC50 at 3 days in [4] was over 100 µM.

In the case of `Cc1cccc(C)c1OCC(=O)N[C@@H](Cc1ccccc1)[C@@H](O)C[C@H](Cc1ccccc1)NC(=O)[C@H](C(C)C)N1CCCNC1=O` [Lopinavir, lopinavir], in the series with SARS-CoV-2^WK-521 [1], the Observation by immunocytochemistry result was “most of the cells were lost”; the “Antiviral effect seen by immunocytochemistry” value is “no detectable antiviral activity”; the “Block of infectivity and cytopathic effect of SARS-CoV-2^WK-521 (immunocytochemistry)” value was “failed to block the infection”. The “Block of SARS-CoV-2^WK-521 infection” value in the series on SARS-CoV-2^WK-521 [2] is “failed to block SARS-CoV-2 infection”. The EC50 with SARS-CoV-2^WK-521 [3] (setting [6]) was found to be 19 ± 8 µM. Further, the Selectivity index in the series with SARS-CoV-2^WK-521 [3] was 2.7. The same molecule gave a CC50 at 3 days in series [4] of 51 ± 5 µM.

For the molecule `CCN(CC)CCCC(C)Nc1ccnc2cc(Cl)ccc12` (stereo not drawn) [Chloroquine, chloroquine], the Observation by immunocytochemistry result is “slightly block infectivity” with SARS-CoV-2^WK-521 [2] (10 μM); “almost all the cells were shed from the wells” in the series on SARS-CoV-2^WK-521 [2] (100 μM); “almost all VeroE6 cells were lost” with SARS-CoV-2^WK-521 [2] (100 μM, listed as chloroquine). Also, the “Block of SARS-CoV-2^WK-521 infection” value in the series on SARS-CoV-2^WK-521 [2] was “failed to block the infectivity”.

With `N=C(N)c1ccc2cc(OC(=O)c3ccc(N=C(N)N)cc3)ccc2c1` [Nafamostat, nafamostat], the half-maximal effective concentration (EC50) in the series on SARS-CoV-2 was 0.005 µM. The “Cytotoxicity seen in immunocytochemistry” value in the series on SARS-CoV-2^WK-521 [2] is “did not exert significant toxicity; also recorded: not significantly cytotoxic”. The “Block of SARS-CoV-2^WK-521 infection” value was “inactive against the virus” with SARS-CoV-2^WK-521 [2] and “did not exert significant antiviral activity; also recorded: failed to block SARS-CoV-2 infection” with SARS-CoV-2^WK-521 [2] (listed as nafamostat). The “Cytotoxicity (in words)” value with VeroE6 cells is recorded as “nontoxic at all concentrations tested”. In [4], this molecule showed a CC50 at 3 days of over 100 µM.

With `CC(=O)Oc1ccccc1C(=O)Nc1ncc([N+](=O)[O-])s1` [Nitazoxanide, nitazoxanide], the Observation by immunocytochemistry result is recorded as “only a few nuclei remained” in the series on SARS-CoV-2^WK-521 [2] (100 μM); “did not exert activity against the virus” in the series with SARS-CoV-2^WK-521 [2] (1 and 10 μM). Further, the “Block of SARS-CoV-2^WK-521 infection” value in the series with SARS-CoV-2^WK-521 [2] was “did not block the infectivity”. In the series on SARS-CoV-2^WK-521 [3] (setting [6]), the EC50 came out at 31 ± 6 µM. For the same molecule, in the series with SARS-CoV-2^WK-521 [3], the Selectivity index came to 2.8. In series [4], this molecule yielded a CC50 at 3 days of 88 ± 3 µM.
